Assay results as given in patent US11192914B2, “Alkyne containing nucleotide and nucleoside therapeutic compositions and uses related thereto” (Emory University, priority 2016, dated 2021).
Read-outs that look alike come from different tables or passages of the source.

Columns and labels:
[1] = test system: CC1(O)C(O)[C@@H](COP(=O)(O)OP(=O)(O)OP(=O)(O)O)O[C@H]1n1ccc(N)nc1=O; assay: purified protein, by the assay type
[2] = test system: CC1(O)C(O)[C@@H](COP(=O)(O)OP(=O)(O)OP(=O)(O)O)O[C@H]1n1cnc2c(N)ncnc21; assay: purified protein, by the assay type
[3] = test system: CC1(O)C(O)[C@@H](COP(=O)(O)OP(=O)(O)OP(=O)(O)O)O[C@H]1n1cnc2c(=O)[nH]c(N)nc21; assay: purified protein, by the assay type
[4] = test system: C#CC1(O)C(O)[C@@H](COP(=O)(O)OP(=O)(O)OP(=O)(O)O)O[C@H]1n1cnc2c(N)ncnc21; assay: purified protein, by the assay type
[5] = test system: C#CC1(O)C(O)[C@@H](COP(=O)(O)OP(=O)(O)OP(=O)(O)O)O[C@H]1n1ccc(=O)[nH]c1=O; assay: purified protein, by the assay type
[6] = test system: CC1(O)C(O)[C@@H](COP(=O)(O)OP(=O)(O)OP(=O)(O)O)O[C@H]1n1ccc(=O)[nH]c1=O; assay: purified protein, by the assay type; type: biochemical, Zika virus
ZIKV NS5 RdRp = biological target: T1, ZIKV NS5 RdRp (Zika virus, UniProt Q32ZE1); type: biochemical; conditions: analog triphosphates against ZIKV NS5 RdRp
T1 construct: activity of select analog triphosphates against the ZIKV NS5 RdRp
T1 sequence (Q32ZE1 2517-3419): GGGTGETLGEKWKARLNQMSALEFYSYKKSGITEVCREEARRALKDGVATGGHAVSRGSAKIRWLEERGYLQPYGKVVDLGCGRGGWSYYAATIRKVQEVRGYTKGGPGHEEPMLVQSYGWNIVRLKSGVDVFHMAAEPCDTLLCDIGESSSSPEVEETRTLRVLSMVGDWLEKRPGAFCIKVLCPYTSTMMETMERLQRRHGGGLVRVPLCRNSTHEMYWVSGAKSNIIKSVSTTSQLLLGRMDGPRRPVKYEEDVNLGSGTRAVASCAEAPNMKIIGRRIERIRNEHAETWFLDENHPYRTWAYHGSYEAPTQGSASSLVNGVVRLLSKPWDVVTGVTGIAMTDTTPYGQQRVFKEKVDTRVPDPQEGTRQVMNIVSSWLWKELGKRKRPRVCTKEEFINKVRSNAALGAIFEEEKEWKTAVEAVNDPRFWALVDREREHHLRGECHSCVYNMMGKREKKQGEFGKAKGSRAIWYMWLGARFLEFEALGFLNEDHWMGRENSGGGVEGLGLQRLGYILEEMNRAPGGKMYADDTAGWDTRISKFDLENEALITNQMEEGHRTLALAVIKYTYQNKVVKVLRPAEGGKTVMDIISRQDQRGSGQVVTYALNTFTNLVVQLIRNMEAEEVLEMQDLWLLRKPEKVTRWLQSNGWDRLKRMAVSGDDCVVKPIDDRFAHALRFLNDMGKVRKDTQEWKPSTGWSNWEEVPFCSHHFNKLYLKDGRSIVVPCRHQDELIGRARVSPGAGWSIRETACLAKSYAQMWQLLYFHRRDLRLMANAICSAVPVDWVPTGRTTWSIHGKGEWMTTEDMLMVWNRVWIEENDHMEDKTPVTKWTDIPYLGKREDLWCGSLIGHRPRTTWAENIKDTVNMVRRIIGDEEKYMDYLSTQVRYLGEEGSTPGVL

ZIKV [7] = assay: ZIKV infectious (cytoprotection, XTT) assay; type: cell-based, Zika virus; conditions: read-out: ZIKV EC50
Description: (§1) Vero cells were passaged in DMEM medium in T-75 flasks prior to use in the antiviral assay. On the day preceding the assay, the cells were split 1:2 to assure they were in exponential growth phase at the time of infection. The cells were resuspended at […] cells per well in tissue culture medium and added to flat bottom microtiter plates in a volume of […]. The plates were incubated at 37° C./5% CO2 overnight to allow for cell adherence. Separately, Zika virus was titrated in LLCMK2 cells to define the inoculum for use in the antiviral assay. Virus was diluted in DMEM medium such that the amount of virus added to each well in a volume of […] was the amount determined to achieve 85 to 95% cell killing at 5 days post-infection. Following incubation test plates were stained with XTT dye. XTT solution was prepared daily as a stock solution of 1 mg/mL in RPM11640. PMS solution was prepared at 0.15 mg/mL in PBS and stored in the dark at −20° C. XTT/PMS stock was prepared immediately before use by adding […] of PMS per mL of XTT solution. Fifty microliters of XTT/PMS was added to each well of the plate, and the plate was reincubated for 4 hours at 37° C. Plates were sealed with adhesive plate sealers ad shaken gently to mix the soluble formazan product, and the plate was read spectrophotometrically read 450/650 nm with a Molecular Devices Vmax plate reader. The raw data was collected from Softmax Pro and imported into a Microsoft Excel XLfit4 spreadsheet for analysis using four parameter curve fit calculations.

[8] = Cytotoxicity in Vero cells (XTT); type: cell-based, African green monkey; conditions: African green monkey
Description: as §1

ZIKV [9] = assay: ZIKV infectious (cytoprotection, XTT) assay; type: cell-based; conditions: Zika virus
DENV2 New Guinea C = assay: Anti-Dengue virus cytoprotection assay; type: cell-based, Dengue virus type 2
Description: Cell Preparation—BHK21 cells (Syrian golden hamster kidney cells, ATCC catalog #CCL-I 0), Vero cells (African green monkey kidney cells, ATCC catalog #CCL-81), or Huh-7 cells (human hepatocyte carcinoma) were passaged in DMEM supplemented with 10% FBS, 2 mM L-glutamine, 100 U/mL penicillin, and 100 μg/mL streptomycin in T-75 flasks prior to use in the antiviral assay. On the day preceding the assay, the cells were split 1:2 to assure they were in an exponential growth phase at the time of infection. Total cell and viability quantification was performed using a hemocytometer and Trypan Blue dye exclusion. Cell viability was greater than 95% for the cells to be utilized in the assay. The cells were resuspended at 3×10^3 ([…] for Vero cells and Huh-7 cells) cells per well in tissue culture medium and added to flat bottom microtiter plates in a volume of 100 μL. The plates were incubated at 37° C./5% CO2 overnight to allow for cell adherence.
Virus Preparation—The Dengue virus type 2 New Guinea C strain was obtained from ATCC (catalog #VR-1584) and was grown in LLC-MK2 (Rhesus monkey kidney cells; catalog #CCL-7.1) cells for the production of stock virus pools. An aliquot of virus pretitered in BHK21 cells was removed from the freezer (−80° C.) and allowed to thaw slowly to room temperature in a biological safety cabinet. Virus was resuspended and diluted into assay medium (DMEM supplemented with 2% heat-inactivated FBS, 2 mM L-glutamine, 100 U/mL penicillin, and 100 μg/mL streptomycin) such that the amount of virus added to each well in a volume of 100 μL was the amount determined to yield 85 to 95% cell killing at 6 days post-infection.
Plate Format—Each plate contains cell control wells (cells only), virus control wells (cells plus virus), triplicate drug toxicity wells per compound (cells plus drug only), as well as triplicate experimental wells (drug plus cells plus virus).
Efficacy and Toxicity XTT-Following incubation at 37° C. in a 5% CO2 incubator, the test plates were stained with the tetrazolium dye XTT (2,3-bis(2-methoxy-4-nitro-5-sulfophenyl)-5-[(phenylamino)carbonyl]-2H-tetrazolium hydroxide). XTT-tetrazolium was metabolized by the mitochondrial enzymes of metabolically active cells to a soluble formazan product, allowing rapid quantitative analysis of the inhibition of virus-induced cell killing by antiviral test substances. XTT solution was prepared daily as a stock of 1 mg/mL in RPMI 1640. Phenazine methosulfate (PMS) solution was prepared at 0.15 mg/mL in PBS and stored in the dark at −20° C. XTT/PMS stock was prepared immediately before use by adding 40 μL of PMS per ml of XTT solution. Fifty microliters of XTT/PMS was added to each well of the plate and the plate was reincubated for 4 hours at 37° C. Plates were sealed with adhesive plate sealers and shaken gently or inverted several times to mix the soluble formazan product and the plate was read spectrophotometrically at 450/650 nm with a Molecular Devices Vmax plate reader.
Data Analysis —Raw data was collected from the Softmax Pro 4.6 software and imported into a Microsoft Excel spreadsheet for analysis. The percent reduction in viral cytopathic effect compared to the untreated virus controls was calculated for each compound. The percent cell control value was calculated for each compound comparing the drug treated uninfected cells to the uninfected cells in medium alone.

HRV-26 = assay: Human rhinovirus assay (HRV-26); type: cell-based; conditions: Human rhinovirus sp., HRV26; Cell Line HeLa
Vero cells = assay: Cytotoxicity in Vero cells (XTT); type: cell-based, African green monkey
Description: as §1

[10] = Zika virus, Vero, ZIKV infectious assay, Vero cells
[11] = Zika virus, Vero, Cell Line Vero
[12] = Huh-7, Cell Line Huh-7, read-out: ZIKV EC50

With ZIKV NS5 RdRp (Zika virus) the Km [1] was 1.45 µM, the Km [2] was 3.03 µM and the Km [3] was 2.82 µM. For the same molecule, the Km [4] was 1.26 µM, the Km [5] was 6.59 µM and the Km [6] was 72.82 µM.
With CC1(O)C(O)[C@@H](COP(=O)(O)OP(=O)(O)OP(=O)(O)O)O[C@H]1n1cnc2c(N)ncnc21 (some centres unmarked) the “ZIKV Polymerase Assay Discrimination” value (ZIKV NS5 RdRp) was 12.
CC(C)(C)C(=O)OCOP(=O)(OCOC(=O)C(C)(C)C)OC[C@H]1O[C@@H](n2ccc(=O)[nH]c2=O)C(C)(O)C1O (some centres unmarked) gave an EC50 (ZIKV [7]; [10]) of 3.57 µM and a CC50 at 5 days [8] of 26.4 µM.
With C#C[C@@]1(O)[C@H](O)[C@@H](CO[P@@](=O)(N[C@@H](C)C(=O)OC(C)C)Oc2ccccc2)O[C@H]1n1cc(F)c(=O)[nH]c1=O the EC50 (ZIKV [7]; Zika virus, Vero) was > 100 µM and the EC50 (ZIKV [9]; Huh-7, read-out: ZIKV EC50) was 13 µM.
For C#C[C@@]1(O)[C@H](O)[C@@H](CO)O[C@H]1n1cnc2cnc(N)nc21 [drawing 747], the EC50 (ZIKV [9]; HeLa, Cell Line HeLa, read-out: ZIKV EC50) was > 100 µM.
With C#C[C@@]1(O)[C@H](O)[C@@H](CO[P@@](=O)(N[C@@H](C)C(=O)OC(C)C)Oc2ccccc2)O[C@H]1n1ccc2c(N)ncnc21 [drawing 740] the EC50 (DENV2 New Guinea C; DENV2, BHK-21, read-out: DENV2 New Guinea C EC50) was 27.7 µM.
In the case of CC1(O)C(O)[C@@H](CO)O[C@H]1n1cnc2c(N)ncnc21 (some centres unmarked) [drawing 678], the EC50 (ZIKV [7]; [10]) is reported as 2.75 µM and the CC50 at 5 days [8] is reported as > 100 µM.
CC1(O)C(O)[C@@H](CO)O[C@H]1n1ccc(N)nc1=O (some centres unmarked) gave an EC50 (ZIKV [7]; [10]) of 0.13 µM and a CC50 at 5 days [8] of 9.57 µM.
In the case of C#CC1(O)C(O)[C@@H](COP(=O)(OCOC(=O)C(C)(C)C)OCOC(=O)C(C)(C)C)O[C@H]1n1ccc(=O)[nH]c1=O (some centres unmarked) [drawing 679], the EC50 (ZIKV [7]; [10]) is reported as 1.06 µM and the CC50 at 5 days [8] is reported as 11 µM.
For C#C[C@@]1(O)[C@H](O)[C@@H](CO)O[C@H]1n1ccc(=O)[nH]c1=O, the EC50 (ZIKV [7]; [11]) was > 100 µM and the EC50 (ZIKV [9]; [12]) was > 100 µM.
In the case of C#C[C@@]1(O)[C@H](O)[C@@H](CO)O[C@H]1n1cnc2cnc(N)nc21 [drawing 743], the EC50 (HRV-26) is reported as > 100 µM.
With CC1(O)C(O)[C@@H](COP(=O)(O)OP(=O)(O)OP(=O)(O)O)O[C@H]1n1ccc(=O)[nH]c1=O (some centres unmarked) the “ZIKV Polymerase Assay Discrimination” value (ZIKV NS5 RdRp) was 53.
With C#C[C@@]1(O)[C@H](O)[C@@H](CO[P@@](=O)(N[C@@H](C)C(=O)OC(C)C)Oc2ccccc2)O[C@H]1n1ccc(=O)[nH]c1=O [drawing 746] the EC50 (ZIKV [7]; Zika virus, Vero) was > 100 µM and the EC50 (ZIKV [9]; Huh-7, read-out: ZIKV EC50) was 0.5 µM.
For CC1(O)C(O)[C@@H](CO)O[C@H]1n1cnc2c(=O)[nH]c(N)nc21 (some centres unmarked), the EC50 (ZIKV [7]; [10]) was 7.23 µM and the CC50 at 5 days [8] was > 100 µM.
In the case of C#CC1(O)C(O)[C@@H](CO)O[C@H]1n1ccc2c(N)ncnc21 (some centres unmarked), the EC50 (ZIKV [7]; [10]) is reported as 0.34 µM and the CC50 at 5 days [8] is reported as 35.4 µM.
In the case of C#CC1(O)C(O)[C@@H](COP(=O)(O)OP(=O)(O)OP(=O)(O)O)O[C@H]1n1ccc(=O)[nH]c1=O (some centres unmarked), the “ZIKV Polymerase Assay Discrimination” value (ZIKV NS5 RdRp) is reported as 5.
With CC1(O)C(O)[C@@H](COP(=O)(O)OP(=O)(O)OP(=O)(O)O)O[C@H]1n1cnc2c(=O)[nH]c(N)nc21 (some centres unmarked) the “ZIKV Polymerase Assay Discrimination” value (ZIKV NS5 RdRp) was 13.
For CC1(O)C(O)[C@@H](CO)O[C@H]1n1cnc2c(N)ncnc21 (some centres unmarked) [drawing 675], the EC50 (ZIKV [7]; ZIKV infectious assay, Vero cells) was 2.46 µM and the CC50 (Vero cells) was > 100 µM.
In the case of C#CC1(O)C(O)[C@@H](COP(=O)(O)OP(=O)(O)OP(=O)(O)O)O[C@H]1n1cnc2c(N)ncnc21 (some centres unmarked), the “ZIKV Polymerase Assay Discrimination” value (ZIKV NS5 RdRp) is reported as 5.
In the case of C#C[C@@]1(O)[C@H](O)[C@@H](CO[P@@](=O)(N[C@@H](C)C(=O)OC(C)C)Oc2ccccc2)O[C@H]1n1ccc2c(N)ncnc21 [drawing 744], the EC50 (ZIKV [9]; Huh-7, read-out: ZIKV EC50) is reported as 0.001 µM.
With C#C[C@@]1(O)[C@H](O)[C@@H](CO)O[C@H]1n1cnc2cnc(N)nc21 [drawing 741] the EC50 (DENV2 New Guinea C; DENV2, Vero, read-out: DENV2 New Guinea C EC50) was > 100 µM.
With C#C[C@@]1(O)[C@H](O)[C@@H](CO)O[C@H]1n1cnc2cnc(N)nc21 [drawing 751] the EC50 (ZIKV [7]; [11]) was > 100 µM.
With C#C[C@@]1(O)[C@H](O)[C@@H](CO[P@@](=O)(N[C@@H](C)C(=O)OC(C)C)Oc2ccccc2)O[C@H]1n1ccc(=O)[nH]c1=O [drawing 742] the EC50 (HRV-26) was 3.22 µM.
For CC1(O)C(O)[C@@H](COP(=O)(O)OP(=O)(O)OP(=O)(O)O)O[C@H]1n1ccc(N)nc1=O (some centres unmarked), the “ZIKV Polymerase Assay Discrimination” value (ZIKV NS5 RdRp) was 7.
With C#C[C@@]1(O)[C@H](O)[C@@H](CO)O[C@H]1n1cc(F)c(=O)[nH]c1=O the EC50 (ZIKV [9]; [12]) was > 100 µM.
With C#CC1(O)C(O)[C@@H](COP(=O)(OCOC(=O)C(C)(C)C)OCOC(=O)C(C)(C)C)O[C@H]1n1cc(F)c(=O)[nH]c1=O (some centres unmarked) the EC50 (ZIKV [9]; [12]) was 5.3 µM.
